# Biological target: T1, Solute carrier organic anion transporter family member 1B1 (Homo sapiens, UniProt Q9Y6L6)
# T1 sequence (Q9Y6L6 whole entry): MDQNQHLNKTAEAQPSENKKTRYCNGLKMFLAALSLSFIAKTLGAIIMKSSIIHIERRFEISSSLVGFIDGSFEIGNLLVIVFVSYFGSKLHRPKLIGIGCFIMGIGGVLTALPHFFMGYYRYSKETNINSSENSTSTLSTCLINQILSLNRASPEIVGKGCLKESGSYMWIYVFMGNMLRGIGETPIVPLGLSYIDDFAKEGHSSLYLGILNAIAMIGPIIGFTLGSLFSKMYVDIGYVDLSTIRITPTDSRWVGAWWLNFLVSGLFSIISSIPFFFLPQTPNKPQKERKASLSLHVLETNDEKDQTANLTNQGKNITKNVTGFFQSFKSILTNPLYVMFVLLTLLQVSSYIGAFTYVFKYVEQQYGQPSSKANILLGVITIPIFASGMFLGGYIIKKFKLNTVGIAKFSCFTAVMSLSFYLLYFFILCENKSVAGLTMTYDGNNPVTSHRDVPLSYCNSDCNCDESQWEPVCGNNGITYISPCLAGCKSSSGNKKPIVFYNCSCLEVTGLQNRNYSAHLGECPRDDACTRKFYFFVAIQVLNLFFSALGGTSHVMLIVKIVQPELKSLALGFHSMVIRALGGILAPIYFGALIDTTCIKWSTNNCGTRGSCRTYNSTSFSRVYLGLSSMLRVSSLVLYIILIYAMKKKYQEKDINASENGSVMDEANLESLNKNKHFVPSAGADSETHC
row,Compound,Ki [nM]
1,COc1ccc2c(c1)c(CC(=O)O)c(C)n2C(=O)c1ccc(Cl)cc1 [indometacin],2
2,Cc1ccc(-c2ncc(Cl)cc2-c2ccc(S(C)(=O)=O)cc2)cn1,> 10000

# — BindingDB's records for PubMed 11160644 (Merck Frosst Centre For Therapeutic Research, 2001)
